Laboratory results taken from patent US7476672B2, “Acetylenic compounds useful in treating inflammatory disorders” (Janssen Pharmaceutica N.V., priority 2002, dated 2009).
Read-outs that look alike come from different tables or passages of the source. Values belong to the molecule of their own block, whether it stands above or below them.

Tests used:
NADPH-oxidase = biological target: T1, NADPH-oxidase (Homo sapiens, UniProt P04839); assay: Oxidase Inhibition Assay (PMA-stimulated superoxide-mediated reduction of Cytochrome c, whole cells); assay type: cell-based
T1 construct: endogenous in cells; host or cells: human neutrophils isolated from buffy coat
T1 sequence (P04839 1-570): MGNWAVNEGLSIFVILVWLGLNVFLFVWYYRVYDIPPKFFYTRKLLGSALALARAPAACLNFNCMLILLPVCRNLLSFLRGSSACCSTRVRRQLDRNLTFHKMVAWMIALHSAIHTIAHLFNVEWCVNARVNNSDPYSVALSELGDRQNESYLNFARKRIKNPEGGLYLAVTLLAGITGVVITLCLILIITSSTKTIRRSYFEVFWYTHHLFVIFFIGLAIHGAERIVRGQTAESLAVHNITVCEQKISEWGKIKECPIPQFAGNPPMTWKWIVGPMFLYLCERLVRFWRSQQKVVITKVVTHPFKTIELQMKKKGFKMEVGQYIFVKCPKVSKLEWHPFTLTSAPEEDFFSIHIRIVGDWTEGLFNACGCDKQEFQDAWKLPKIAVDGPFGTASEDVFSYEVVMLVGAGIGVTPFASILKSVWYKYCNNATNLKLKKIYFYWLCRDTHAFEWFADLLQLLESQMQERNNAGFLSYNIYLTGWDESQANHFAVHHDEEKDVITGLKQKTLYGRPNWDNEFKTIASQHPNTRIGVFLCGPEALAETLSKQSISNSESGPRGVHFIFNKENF
Experimental: Whole cells (human neutrophils) are incubated with a pro-inflammatory agonist phorbol myristate acetate (PMA) in the presence or absence of test compound to measure the superoxide-mediated reduction of Cytochrome c at 550 nm. Inhibition of the oxidase is determined by a decreased absorbance at 550 nm, in response to test compound, relative to the absorbance seen with a vehicle control.
The buffy coat from one unit of blood is split evenly into four 50 mL tubes. To each tube 30 mL 3% Dextran (in 0.9% NaCl) is added and the tubes are inverted to mix. Tubes are allowed to sit undisturbed for 25 minutes. The resulting supernatant is recovered into four fresh tubes and centrifuged for 10 minutes at 600×g, 4° C. The supernatant is discarded and pellets are resuspended in 35 mL 0.9% saline. 10 mL Ficoll-Paque PLUS (Pharmacia Biotech AB) is layered beneath the cell suspension and centrifuged at 600×g for 40 minutes at room temperature. The supernatant is again discarded and tubes are tapped to loosen the resulting pellets. 20 mL 0.2% ice cold saline is added for 30 seconds followed by 20 mL 1.6% ice cold saline to lyse the remaining erythrocytes in the pellets. The pellets are centrifuged for 10 minutes at 600×g, 4° C., and the supernatant is discarded. The neutrophil pellets are resuspended in HBSS-glucose buffer (1 mg/mL), adding 2.5 mL to each tube for a total volume of 10 mL. The cell suspension is then counted on a hemocytometer.
The cell suspension is diluted to a concentration of 5×10^6/mL in HBSS-glucose and treated with 1 μg/mL Cytochalasin B (5 mg/mL DMSO) for 10 minutes at 37° C. in a shaking water bath. Cells are diluted to 6×10^5 cells/mL in 92 μM Cytochrome C for a final concentration of 5×10^4 cells/well.
The NADPH-oxidase assay is run on a Biomek 2000 workstation. The workstation adds 2.5 μL compound per well from source plates plus 12.5 μL per well 4 μM PMA (agonist). This volume is brought up to 100 μL total per well in the assay plates upon the addition of the prepared cells (85 μL). The final concentration of drug is 25 μM and PMA is 0.5 μM under these conditions.
The QC curve is a dose-response curve (from about 31.25 nM to about 4000 nM) for competitive binding against a known oxidase inhibitor such as DPI (diphenylene iodonium chloride). The format used for each compound tested is as follows:
The plates are incubated for 1 hour at 37° C. without CO2. The plates are then incubated at room temperature for 30 minutes and the absorbance is read at 550 nm.

[1] = tested on: potassium peroxochromate arthritis; settings: mice, cited from earlier work
[2] = tested on: reactive oxygen species (ROS); settings: human patients with rheumatoid arthritis and osteoarthritis, pharmacological doses; cited from earlier work

IC50 (NADPH-oxidase; human neutrophils, PMA 0.5 μM, absorbance at 550 nm): 1000 nM
melting point: 251 to 254 °C
Structure (SMILES): Cc1cc(C#Cc2ccc(Cl)cc2)ccc1OCCNCc1ccc(CNCCC2CCCN2C)cc1 (stereo not drawn) [Compound 13, N^1-[2-[4-[(4-chlorophenyl)ethynyl]-2-methylphenoxy]ethyl]-N^4-[2-(1-methyl-2-pyrrolidinyl)ethyl]-1,4-benzenedimethanamine]

Structure (SMILES): c1ccc2c(c1)[I+]c1ccccc1-2 [DPI, diphenylene iodoniumchloride]
inhibition at 10 µM (NADPH-oxidase; QC wells G-H, 2.5 μL of 10 μM DPI, at 250 nm (so in the source), agonist added): ~70%
inhibition of the arthritis ([1]; 10 mmol/kg): Complete inhibition
inhibition of the arthritis ([1]; daily doses of 2.8 μmol/kg): 50%

Structure (SMILES): CN1C(C(=O)Nc2ccccn2)=C(O)c2ccccc2S1(=O)=O [Piroxicam]
reduction of levels of ROS [2]: 25%
